Laboratory results taken from US9089601B2, “Pre- and intra-operative imaging of bladder cancer” (University of Rochester, priority 2006, dated 2015).

Assays:
[1] = tested on: mammals; conditions: cited from earlier work; for neuronal toxicity: used in mammals
[2] = tested on: UPII-SV40T transgenic mice; assay: Intravesical instillation of ICG and intraoperative NIRF identification of lymphatic channels and SLNs in bladder tumor mice; type: in vivo
[3] = cited from earlier work

| Compound | neuronal toxicity [1] | animals showing draining lymphatic channels and SLNs ([2]; 12 female mice, intravesical ICG 2.5 mg/mf, 100 or 200 μl, NIRF 20, 30 and 60 minutes later) [animals] | visualization of SLNs by intraoperative imaging ([2]; dye instilled at 10, 20, 30, or 60 minutes before imaging) | sentinel nodes detected per animal ([2]; in all animals, intravesical ICG, NIRF) | location of SLNs ([2]; intravesical ICG, NIRF) | fluorescence of lymphatic channels and nodes following instillation of the dye into the bladder ([2]; mouse, FIG. 1B and 1C) | metabolism ([3]; in the body) | excretion ([3]; in vivo) | reabsorption from the intestine / enterohepatic recirculation ([3]; in vivo) | toxicity ([1]; in vivo) |
| --- | --- | --- | --- | --- | --- | --- | --- | --- | --- | --- |
| N=C(N)c1ccc(/C=C/c2ccc(C(=N)N)cc2O)cc1 [Fluorogold] | low evidence of neuronal toxicity |  |  |  |  |  |  |  |  |  |
| CC1(C)C(/C=C/C=C/C=C/C=C2\N(CCCCS(=O)(=O)O)c3ccc4ccccc4c3C2(C)C)=[N+](CCCCS(=O)(=O)[O-])c2ccc3ccccc3c21 [ICG, indocyanine green] | low evidence of neuronal toxicity | 12 | successfully visualized | At least two | common or external iliac lymphatic chains | fluorescing of the mouse's lymphatic channels and nodes on iliac bifurcation | not metabolized | excreted exclusively by the liver | not reabsorbed from the intestine and does not undergo enterohepatic recirculation | low toxicity |
| Fast Blue | low evidence of neuronal toxicity |  |  |  |  |  |  |  |  |  |
